Consider two compounds from patent US7022846B2, “Metabolites of prinomastat and their synthesis” (Agouron Pharmaceuticals, Inc., priority 2002, dated 2006).

The target in data set [1] is T1, hCOL1 (Homo sapiens, UniProt P03956).
T1 sequence (P03956 100-469): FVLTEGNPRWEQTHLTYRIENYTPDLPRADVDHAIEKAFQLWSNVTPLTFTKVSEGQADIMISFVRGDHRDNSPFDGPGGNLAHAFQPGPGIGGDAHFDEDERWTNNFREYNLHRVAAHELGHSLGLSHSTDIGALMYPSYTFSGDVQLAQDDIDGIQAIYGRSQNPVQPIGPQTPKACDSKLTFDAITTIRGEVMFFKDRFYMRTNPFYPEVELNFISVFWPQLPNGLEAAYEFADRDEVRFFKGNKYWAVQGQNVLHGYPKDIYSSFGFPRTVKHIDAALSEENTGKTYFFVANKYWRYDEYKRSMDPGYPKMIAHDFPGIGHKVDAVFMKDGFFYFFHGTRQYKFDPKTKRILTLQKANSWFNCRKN
Nature of the data set: Ki for MMP inhibition, hCOL1. The data set is classed as biochemical. From the text:
(§1) The present invention is further directed to methods of inhibiting metalloproteinase activity, for example in mammalian tissue, by administering metabolites of prinomastat, such as a compound of the formula 11 or 22, or a pharmaceutically acceptable prodrug, salt or solvate thereof. The activity of the inventive compounds as inhibitors of metalloproteinase activity, such as the activity of MMPs (including stromelysins, collagenases, gelatinases, and/or matrilysin) and/or TNF-[…] convertase, may be measured by any of the methods available to those skilled in the art, including in vivo and/or in vitro assays. Examples of suitable assays fro activity measurements include those described in Anal. Biochem., 147, 437 (1995), Anal. Biochem., 180, 110 (1989), FEBS, 96, 263 (1992) and European Patent Application No. 0 606 046.

In data set [2] the target is hCOL3 (Homo sapiens, UniProt P45452). Description: Ki for MMP inhibition, hCOL3. The data set is classed as biochemical.
From the text: as §1

In data set [3] the target is T2, hMATR (Homo sapiens, UniProt P09237).
T2 sequence (P09237 95-267): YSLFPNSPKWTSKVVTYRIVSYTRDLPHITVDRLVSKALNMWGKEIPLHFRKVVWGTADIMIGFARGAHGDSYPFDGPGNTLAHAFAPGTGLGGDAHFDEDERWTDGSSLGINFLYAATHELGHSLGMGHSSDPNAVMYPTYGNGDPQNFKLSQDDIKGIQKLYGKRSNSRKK
Description: Ki for MMP inhibition, hMATR. Format: biochemical.
From the text: as §1

Data set [4] addresses hSLN (Homo sapiens, UniProt P08254). Nature of the data set: Ki for MMP inhibition, hSLN. The data set is classed as biochemical.
From the text: as §1

The target in data set [5] is T3, hGELA (Homo sapiens, UniProt P08253).
T3 sequence (P08253 110-660): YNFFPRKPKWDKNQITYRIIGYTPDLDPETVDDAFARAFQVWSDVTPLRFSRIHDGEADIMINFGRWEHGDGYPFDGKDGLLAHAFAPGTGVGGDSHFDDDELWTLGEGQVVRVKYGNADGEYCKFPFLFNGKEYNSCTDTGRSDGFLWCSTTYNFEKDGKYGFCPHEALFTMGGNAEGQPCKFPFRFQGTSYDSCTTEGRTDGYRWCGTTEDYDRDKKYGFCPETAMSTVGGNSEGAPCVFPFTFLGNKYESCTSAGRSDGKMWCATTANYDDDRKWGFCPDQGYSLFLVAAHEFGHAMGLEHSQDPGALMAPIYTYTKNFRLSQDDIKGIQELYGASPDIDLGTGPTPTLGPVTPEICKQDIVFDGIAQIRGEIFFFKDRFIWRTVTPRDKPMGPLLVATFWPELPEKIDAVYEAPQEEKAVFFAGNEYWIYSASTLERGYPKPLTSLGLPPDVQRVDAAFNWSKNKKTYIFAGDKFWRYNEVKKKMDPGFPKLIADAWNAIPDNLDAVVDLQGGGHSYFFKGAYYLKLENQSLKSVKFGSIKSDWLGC
Nature of the data set: Ki for MMP inhibition, hGELA. Format: biochemical.
From the text: as §1

A short description of data set [6]: Metabolic composition of human plasma after single oral dose of prinomastat (LC-MS/MS). As to conditions: single 100 mg oral dose of prinomastat. The data set is classed as in vivo. How it is done: Five healthy male volunteers received a 100 mg oral dose of prinomastat tablets in a phase I, double-blind, ascending single dose study. Blood samples were drawn at pre-selected time points, and the plasma was separated by centrifugation and stored at −20° C.
The human plasma samples at 1.5, 4, 8 and 12 hours pooled from five male volunteers were selected for the analysis of metabolites by liquid chromatography tandem mass spectroscopy (LC-MS/MS). Samples were treated with three volumes of an AcN:MeOH mixture (2:1) to precipitate plasma proteins. Following centrifugation, protein pellets were separated and washed twice with two volumes of the same AcN:MeOH mixture. The combined supernatant was evaporated to dryness under vacuum using a SpeedVac™ (Savant Instrument, Holbrook, N.Y.), and the dried residue was reconstituted in 0.1% formic acid-acetonitrile (90:10), and analyzed by LC-MS/MS.
Two LC-MS/MS systems were used to analyze the plasma samples. […]
The relative peak heights of prinomastat and its metabolites in the LC-MS reconstructed ion chromatograms (RIC) were used to estimate the relative abundance of each component, which was expressed as percent of total prinomastat related compounds. […]
Human plasma pooled from five male volunteers was analyzed for metabolites at 1.5 hr, 4, 8 and 12 hours. […]

Structures are written as SMILES.

hSLN, sequence (P08254 100-477): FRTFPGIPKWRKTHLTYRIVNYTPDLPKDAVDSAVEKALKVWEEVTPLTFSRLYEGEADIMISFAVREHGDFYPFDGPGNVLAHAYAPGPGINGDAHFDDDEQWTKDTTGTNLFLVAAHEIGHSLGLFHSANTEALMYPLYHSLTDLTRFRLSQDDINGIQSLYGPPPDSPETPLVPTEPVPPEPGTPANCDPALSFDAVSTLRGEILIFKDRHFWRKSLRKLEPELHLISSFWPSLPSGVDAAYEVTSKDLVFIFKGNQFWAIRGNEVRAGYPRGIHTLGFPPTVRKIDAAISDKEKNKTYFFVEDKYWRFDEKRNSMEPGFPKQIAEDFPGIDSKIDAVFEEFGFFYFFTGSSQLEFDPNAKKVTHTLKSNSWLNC

On to `CC1(C)SCCN(S(=O)(=O)c2ccc(Oc3cc[n+]([O-])cc3)cc2)[C@H]1C(=O)NO` [M6, (3S)-N-hydroxy-4-(4-((1-oxy-pyrid-4-yl)oxy)benzenesulfonyl)-2,2-dimethyl-tetrahydro-2H-1,4-thiazine-3-carboxamide], for which the Ki in data set [1] was found to be 396 nM; in data set [2] it was 4 nM; in data set [3], 1140 nM; in data set [4] it was 5.1 nM; in data set [5], 6.6 nM. Also, the “share of the total drug-related substance in human plasma” value in data set [6] (later time points) is reported as at most 50%.
In the case of `CC1(C)SCCN(S(=O)(=O)c2ccc(Oc3ccncc3)cc2)[C@H]1C(=O)NO` [parent drug, (3S)-N-hydroxy-4-(4-(pyrid-4-yloxy)benzenesulfonyl)-2,2-dimethyl-tetrahydro-2H-1,4-thiazine-3-carboxamide, reference compound], the “relative abundance among circulating drug-related compounds in human plasma” value in data set [6] (early time points) was “major circulating compound”.

A word on the Ki: it is a measure of affinity in units of concentration, obtained from inhibition or displacement.
